Entries after “also recorded” stand apart in the source; their conditions may differ. Read-outs that look alike come from different tables or passages of the source.
Experiments:
MIAPaCa-2 cells = experiment: MTT cytotoxicity assay in MIAPaCa-2 cells; assay type: cell-based, Human; conditions: 1 μM, 48 h
Experimental: (§1) Figure 3 Growth-inhibitory effects of gemcitabine and of its amino-acid-conjugated derivatives on BxPC-3, MIAPaCa-2, A549, MDA-MB-231 B16 cells after exposure to 1 μM concentrations for 48 h, as estimated by MTT assay (mean ± SD, n = 3). Experiments were performed three times independently. * p < 0.05, compared with free gemcitabine group.
(§2) Human pancreatic cancer cells (MIAPaCa-2, BxPC-3 and AsPC-1), lung cancer cell lines (A549), human breast cancer cell lines (MDA-MB-231) and melanoma cell lines (B16) were purchased from the American Type Culture Collection (Manassas, VA, USA). MIAPaCa-2 and B16-F10 cells were cultured in Dulbecco’s modified Eagle’s medium (DMEM) supplemented with 10% heat-inactivated fetal bovine serum (FBS) and 1% penicillin/streptomycin. Aspc-1, BxPC-3 MDA-MB-231 and A549 cells were cultured in Roswell Park Memorial Institute 1640 (RPMI-1640) medium supplemented with 10% FBS and 1% penicillin/streptomycin. FBS and all other reagents used for cell culture were purchased from Invitrogen (Carlsbad, CA, USA). Cultures were maintained at 37 °C in 95% air /5% CO2 humidified atmosphere.
(§3) Cancer cell viabilities after treatment with gemcitabine or its derivatives were quantified using MTT assay as described previously. […] After incubation for 4 h, optical densities (OD) were determined using a microplate reader by measuring absorbances at 540 nm.

[1] = Systemic (intravenous) pharmacokinetics in rats; assay type: in vivo, rat; conditions: 4 mg/kg i.v.
Experimental: This study was performed in male Sprague-Dawley (SD) rats (Orient Bio, Sungnam, Korea), as described previously. Rats were provided water and food ad libitum and maintained under a 12:12-h light/dark cycle. On the experimental day, a femoral vein and contralateral artery were cannulated using an Intramedic™ polyethylene tube (PE-50; Becton Dickinson Diagnostics, Sparks, MD, USA) under Zoletil induced anesthesia (50 mg/kg intramuscularly; Virbac, Carros, France). For the intravenous pharmacokinetic study, Gem-Thr or gemcitabine solution were injected into a femoral vein at 4 mg/kg. Blood (~0.22 mL) was taken from the femoral artery at 0 (blank), 1, 5, 15, 30, 60, 120, 240, 480, 720, or 1440 min. To prevent blood loss, the same volume of normal saline was injected intravenously at each time point. Plasma was obtained immediately centrifugation and then stored at −80 °C prior to LC-MS/MS.
The pharmacokinetic parameters of Gem-Thr, gemcitabine, Gem-Thr plus gemcitabine, and free gemcitabine were calculated by non-compartmental analysis using WinNonlin (Version 3.1; Pharsight, Mountain View, CA, USA), as described previously (Park et al., 2016).
To determine concentrations of Gem-Thr and gemcitabine in rat plasma, plasma samples were deproteinized by adding two volumes of acetonitrile containing internal standard (phenacetin). After mixing, mixtures were centrifuged at 14,000× g for 10 min.
Aliquots of supernatants (2-µL) were injected into the LC-MS/MS system, which consisted of an Agilent HPLC and an Agilent 6490 QQQ mass spectrometer equipped with an ESI+ Agilent Jet Stream ion source (Agilent Technologies, Santa Clara, CA, USA). The separation of each drug and IS from endogenous plasma substances was achieved on a Synergi Polar-RP 80A column (150 × 2.0 mm, 4 μm; Phenomenex, Torrance, CA, USA). The mobile phase consisted of 0.1% formic acid and acetonitrile (20:80, v/v) at a flow rate of 0.2 mL/min. The column and autosampler tray were maintained at 25 and 4 °C, respectively. Gemcitabine, Gem-Thr, and the IS were quantified by multiple-reaction monitoring (MRM) in positive electrospray ionization mode. Respective precursor-to-product ion transitions were as follows: Gemcitabine, 264.1→112.1, Gem-Thr, 387.1→343.2, and IS (phenacetin), 180.2→162.2. Data acquisition was performed using Mass Hunter software (ver. A.02.00; Agilent Technologies).

BxPC-3 cells [2] = experiment: Apoptosis: cleaved PARP western blot and TUNEL assay; assay type: cell-based, Human; conditions: 1 µM, 24 h treatment
Experimental: BxPC-3 cells were washed with DPBS and lysed with RIPA buffer (Biosesang, Seongnam, Korea) containing 150 mM NaCl, 1% Triton X-100, 1% sodium deoxycholate, 0.1% SDS, 50 mM Tris-HCl (pH 7.5), 2 mM EDTA (pH 8.0), and Xpert protease inhibitor and phosphatase inhibitor Cocktail (GenDEPOT, Barker, TX, USA). Proteins were separated by 8% or 15% SDS-PAGE (sodium dodecylsulfate-polyacrylamide gel electrophoresis) and transferred to polyvinylidene fluoride (PVDF) membranes. […] Antibody binding was detected using an enhanced chemiluminescence (ECL) reagent (Bio-Rad, Hercules, CA, USA) using primary antibodies specific to proteins of interest, and proteins were detected using X-ray film and enhanced chemiluminescence reagent. Primary antibodies against the following were used: LAT-1, cleaved PARP (Cell Signaling Technologies, Beverly, MA, USA), GAPDH (Abcam, Cambridge, MA, USA), and β-actin (Sigma Aldrich, St. Louis, MO, USA). Secondary antibodies were purchased from Cell signaling technology.
TUNEL assay was conducted with the ApopTag® Peroxidase In Situ Apoptosis Detection Kit (Merck Millipore, Burlington, MA, USA). Briefly, BxPC-3 cells were seeded onto 18-mm cover glasses in medium and grown to ~70% confluence over 24 h.

BxPC-3 cells [3] = experiment: MTT cytotoxicity assay in BxPC-3 cells; assay type: cell-based, Human; conditions: 48 h
Experimental: as §1, §2
Cancer cell viabilities after treatment with gemcitabine or its derivatives were quantified using MTT assay as described previously. Briefly, cells were seeded onto 96-well plates at 3 × 10^3 cells per well and incubated at 37 °C. The cells were treated with each compound at indicated concentrations for 48 h and then, 20 μL of MTT labeling mixture was added to each well. After incubation for 4 h, optical densities (OD) were determined using a microplate reader by measuring absorbances at 540 nm.

[4] = 37 °C
Experimental: The metabolic stability of Gem-Thr was examined in the presence of PBS (pH 7.4), rat plasma, or liver microsomes as described previously (Maeng et al., 2014). Fresh rat plasma was obtained from sacrificed SD rats (260–280 g) after centrifuging blood (12,000× g, 15 min). Rat liver microsomes were obtained from BD Gentest. Gem-Thr (10 µM) was spiked into PBS, blank rat plasma, or liver microsomes (1 mg protein/mL) and incubated in a shaking water bath at 37 °C for 8 h. Aliquots (50-µL) were taken after 0, 15, 30, 60, 120, 240, […], or 480 min of incubation, immediately pretreated with ice-cold methanolic solution including the internal standard, vortexed for 3 min and centrifuged (12,000× g, 10 min). Supernatants were stored at −80 °C until required for analysis.

[5] = design: method as in PMID 19860433; conditions: cited from earlier work
A549 (lung cancer cells) = experiment: MTT cytotoxicity assay in A549 cells; assay type: cell-based; conditions: 1 μM, 48 h
Experimental: as §1, §2, §3

[6] = system: MDA-MB-231 (breast cancer cells); experiment: MTT cytotoxicity assay in MDA-MB-231 cells; assay type: cell-based, human; conditions: 1 μM, 48 h
Experimental: as §1, §2, §3

[7] = design: method as in PMID 18519786; conditions: in man; cited from earlier work
B16 (melanoma cells) = experiment: MTT cytotoxicity assay in B16 cells; assay type: cell-based; conditions: 1 μM, 48 h
Experimental: Human pancreatic cancer cells (MIAPaCa-2, BxPC-3 and AsPC-1) [21], lung cancer cell lines (A549) [22], human breast cancer cell lines (MDA-MB-231) [23] and melanoma cell lines (B16) [24] were purchased from the American Type Culture Collection (Manassas, VA, USA). MIAPaCa-2 and B16-F10 cells were cultured in Dulbecco’s modified Eagle’s medium (DMEM) supplemented with 10% heat-inactivated fetal bovine serum (FBS) and 1% penicillin/streptomycin. Aspc-1, BxPC-3 MDA-MB-231 and A549 cells were cultured in Roswell Park Memorial Institute 1640 (RPMI-1640) medium supplemented with 10% FBS and 1% penicillin/streptomycin. […] Cultures were maintained at 37 °C in 95% air /5% CO2 humidified atmosphere.
Cancer cell viabilities after treatment with gemcitabine or its derivatives were quantified using MTT assay as described previously [25]. Briefly, cells were seeded onto 96-well plates at 3 × 10^3 cells per well and incubated at 37 °C. The cells were treated with each compound at indicated concentrations for 48 h and then, 20 μL of MTT labeling mixture was added to each well. After incubation for 4 h, optical densities (OD) were determined using a microplate reader by measuring absorbances at 540 nm.

[8] = analyte = administered compound

## C[C@@H](O)[C@H](N)C(=O)Nc1ccn([C@@H]2O[C@H](CO)[C@@H](O)C2(F)F)c(=O)n1 [Gem-Thr, (2S,3R)-2-Amino-N-(1-((2R,4R,5R)-3,3-difluoro-4-hydroxy-5-(hydroxylmethyl)tetra-hydrofuran-2-yl)-2-oxo-1,2-dihydropyrimidin-4-yl)-3-hydroxybutanamide2-(4-((pyridin-3-ylmethyl)amino)quinazolin-2-yl)phenol]
MIAPaCa-2 cells
  anti-cancer effect (cytotoxicity): most potent anticancer effect; also recorded: more effective than free gemcitabine
[1]
  AUC of sum of Gem-Thr and gemcitabine (metabolite) versus gemcitabine alone: 3.62 fold
[1]; [8]
  AUC: 1713.85 ± 1082.40 µg·min/mL
  CL: 2.85 ± 1.33 mL/min/kg
  MRT: 3.953 ± 0.3478 h
  Terminal t1/2: 3.9363 ± 0.849 h
  Vss: 0.66235 ± 0.2814 L/kg
[1]; formed gemcitabine vs free gemcitabine
  increase of systemic exposure (AUC of gemcitabine) versus free gemcitabine: 1.83 fold
BxPC-3 cells [2]
  apoptosis (cleaved PARP, TUNEL positive cells): induced apoptosis significantly
BxPC-3 cells [3]; 1 μM
  anti-cancer effect (cytotoxicity): most potent anticancer effect; also recorded: more effective than free gemcitabine
  cell viability: 44.7%
[4]; 10 µM, after 8 h
  fraction of Gem-Thr metabolized in rat plasma: 20%
[4]; 10 µM, up to 8 h
  metabolic stability in rat plasma: metabolically stable
[4]; PBS pH 7.4, 10 µM, up to 8 h
  stability in PBS: metabolically stable
[4]; rat liver microsomes 1 mg protein/mL, 10 µM, up to 8 h
  metabolic stability in rat liver microsomal fractions: metabolically stable

## Nc1ccn([C@@H]2O[C@H](CO)[C@@H](O)C2(F)F)c(=O)n1 [gemcitabine, 2′-2′-difluorodeoxycytidine]
MIAPaCa-2 cells
  anti-cancer effect (cytotoxicity): significant anti-cancer effects
[1]; male, Sprague-Dawley, rat, plasma, iv, analyte = administered compound
  clearance: 4.23 ± 0.23 mL/min/kg
[1]; male, Sprague-Dawley, rat, plasma, iv, analyte = administered compound, read-out: AUC (converted)
  AUC: 948 µg·min/mL
[1]; male, Sprague-Dawley, rat, plasma, iv, analyte = administered compound, read-out: MRT (converted)
  MRT: 9.7 h
[1]; male, Sprague-Dawley, rat, plasma, iv, analyte = administered compound, read-out: Terminal t1/2
  half-life: 8.88 ± 2.96 h
[1]; male, Sprague-Dawley, rat, plasma, iv, analyte = administered compound, read-out: Vss
  Vd: 2.48 ± 0.867 L/kg
[5]
  oral bioavailability (BA): low oral bioavailability
A549 (lung cancer cells)
  anti-cancer effect versus vehicle treated controls: neither gemcitabine nor gemcitabine derivatives had any significant anti-cancer effect
BxPC-3 cells [2]
  apoptosis (cleaved PARP, TUNEL positive cells): induced apoptosis significantly
[6]
  anti-cancer effect versus vehicle treated controls: neither gemcitabine nor gemcitabine derivatives had any significant anti-cancer effect
[7]
  half-life: 9 min
BxPC-3 cells [3]; 1 μM
  anti-cancer effect (cytotoxicity): significant anti-cancer effects
BxPC-3 cells [3]; Homo sapiens, read-out: cell viability
  viability at 1 µM: 54.1%
B16 (melanoma cells)
  anti-cancer effect (cytotoxicity): significant anti-cancer effects

Source: article PMC6222828, “Synthesis of Gemcitabine-Threonine Amide Prodrug Effective on Pancreatic Cancer Cells with Improved Pharmacokinetic Properties” (Molecules : A Journal of Synthetic Chemistry and Natural …, 2018)
